Results: article PMC5218480 (PLoS ONE, 2017)

Test system: MV-4-11 cells
Assay: Gene expression microarray analysis (Affymetrix PrimeView) and GSEA
Assay type: cell-based, human
Set-up: RFU PODN (11730768_x_at) / Fold change /veh PODN (11730768_x_at) / RFU LINC00158 (11744669_a_at) / Fold change /veh LINC00158 (11744669_a_at) / RFU DUSP10 (11751237_a_at) / Fold change /veh DUSP10 (11751237_a_at) / RFU ID3 (11757404_x_at) / Fold change /veh ID3 (11757404_x_at) / RFU PLEKHG5 (11737974_s_at) / Fold change /veh PLEKHG5 (11737974_s_at) / RFU LRRC4B (11730491_at) / Fold change /veh LRRC4B (11730491_at) / RFU GIMAP4 (11747438_a_at) / Fold change /veh GIMAP4 (11747438_a_at) / RFU KRT8 (11758183_x_at) / Fold change /veh KRT8 (11758183_x_at) / RFU CNN1 (11734310_a_at) / Fold change /veh CNN1 (11734310_a_at) / RFU VPS37D (11726825_at) / Fold change /veh VPS37D (11726825_at) / RFU C10orf10 (11716522_x_at) / Fold change /veh C10orf10 (11716522_x_at) / RFU KIR2DL2 /// KIR2DL4 /// KIR2DL5A /// KIR2DL5B /// KIR2DS1 /// KIR2DS2 /// KIR2DS3 /// KIR2DS4 /// KIR3DL3 /// KIR3DL3 /// KIR3DS1 (11738374_at) / Fold change /veh KIR2DL2 /// KIR2DL4 /// KIR2DL5A /// KIR2DL5B /// KIR2DS1 /// KIR2DS2 /// KIR2DS3 /// KIR2DS4 /// KIR3DL3 /// KIR3DL3 /// KIR3DS1 (11738374_at) / RFU C1QL1 (11718748_at) / Fold change /veh C1QL1 (11718748_at) / RFU TMPRSS4 (11747572_a_at) / Fold change /veh TMPRSS4 (11747572_a_at) / RFU HAMP (11756126_x_at) / Fold change /veh HAMP (11756126_x_at) / RFU RNFT2 (11725882_a_at) / Fold change /veh RNFT2 (11725882_a_at) / RFU NR4A2 (11747474_a_at) / Fold change /veh NR4A2 (11747474_a_at) / RFU ABCC12 (11746883_a_at) / Fold change /veh ABCC12 (11746883_a_at) / RFU TMEM136 (11760407_x_at) / Fold change /veh TMEM136 (11760407_x_at) / RFU CLDN22 /// WWC2 (11732394_at) / Fold change /veh CLDN22 /// WWC2 (11732394_at) / RFU HLA-DPB1 (11760878_x_at) / Fold change /veh HLA-DPB1 (11760878_x_at) / RFU SPINT1 (11716480_a_at) / Fold change /veh SPINT1 (11716480_a_at) / RFU GAP43 (11754022_s_at) / Fold change /veh GAP43 (11754022_s_at) / RFU A4GNT (11735810_at) / Fold change /veh A4GNT (11735810_at) / RFU PRB3 (11715151_x_at) / Fold change /veh PRB3 (11715151_x_at) / RFU TUBB4B (11761932_at) / Fold change /veh TUBB4B (11761932_at) / RFU CAPN14 (11732068_a_at) / Fold change /veh CAPN14 (11732068_a_at) / RFU TMCC2 (11721928_a_at) / Fold change /veh TMCC2 (11721928_a_at) / RFU IRGQ (11745062_a_at) / Fold change /veh IRGQ (11745062_a_at) / RFU FAM174B (11720279_a_at) / Fold change /veh FAM174B (11720279_a_at) / RFU TMPRSS4 (11748680_a_at) / Fold change /veh TMPRSS4 (11748680_a_at) / RFU FAM212B (11763350_a_at) / Fold change /veh FAM212B (11763350_a_at) / RFU PLEKHG5 (11743358_a_at) / Fold change /veh PLEKHG5 (11743358_a_at) / RFU ZSCAN30 (11745921_a_at) / Fold change /veh ZSCAN30 (11745921_a_at) / RFU CMKLR1 (11741424_a_at) / Fold change /veh CMKLR1 (11741424_a_at) / RFU LOC101060620 /// MAPK8IP1 (11723275_at) / Fold change /veh LOC101060620 /// MAPK8IP1 (11723275_at) / RFU SPTSSB (11747773_x_at) / Fold change /veh SPTSSB (11747773_x_at) / RFU PRSS12 (11739890_at) / Fold change /veh PRSS12 (11739890_at) / RFU BIN1 (11741810_x_at) / Fold change /veh BIN1 (11741810_x_at) / RFU WNT11 (11732464_a_at) / Fold change /veh WNT11 (11732464_a_at) / RFU C10orf10 (11716521_a_at) / Fold change /veh C10orf10 (11716521_a_at) / RFU C5orf56 (11738089_at) / Fold change /veh C5orf56 (11738089_at) / RFU CYB561 (11721691_x_at) / Fold change /veh CYB561 (11721691_x_at) / RFU ANKRD19P (11752326_a_at) / Fold change /veh ANKRD19P (11752326_a_at) / RFU OR2T12 /// OR2T33 /// OR2T8 (11738714_s_at) / Fold change /veh OR2T12 /// OR2T33 /// OR2T8 (11738714_s_at) / RFU VCAN (11748164_a_at) / Fold change /veh VCAN (11748164_a_at) / RFU JSRP1 (11732532_at) / Fold change /veh JSRP1 (11732532_at) / RFU KRTAP10-11 (11738290_x_at) / Fold change /veh KRTAP10-11 (11738290_x_at) / RFU MYO3A (11730013_a_at) / Fold change /veh MYO3A (11730013_a_at) / RFU EBF3 (11725865_a_at) / Fold change /veh EBF3 (11725865_a_at) / RFU CAMK2N1 (11719241_x_at) / Fold change /veh CAMK2N1 (11719241_x_at) / RFU C5orf56 (11738088_a_at) / Fold change /veh C5orf56 (11738088_a_at) / RFU OLFML3 (11715873_a_at) / Fold change /veh OLFML3 (11715873_a_at) / RFU LOC100653217 /// NTM (11731650_a_at) / Fold change /veh LOC100653217 /// NTM (11731650_a_at) / RFU MAPK11 (11762145_a_at) / Fold change /veh MAPK11 (11762145_a_at) / RFU FIZ1 (11724087_x_at) / Fold change /veh FIZ1 (11724087_x_at) / RFU OASL (11726364_x_at) / Fold change /veh OASL (11726364_x_at) / RFU SOX15 (11748057_x_at) / Fold change /veh SOX15 (11748057_x_at) / RFU CD79A (11719716_a_at) / Fold change /veh CD79A (11719716_a_at) / RFU HIST1H1D (11736915_at) / Fold change /veh HIST1H1D (11736915_at) / RFU CASKIN2 (11723855_a_at) / Fold change /veh CASKIN2 (11723855_a_at) / RFU LOC730098 (11760151_x_at) / Fold change /veh LOC730098 (11760151_x_at) / RFU OR4N2 (11742367_at) / Fold change /veh OR4N2 (11742367_at) / RFU PRRT2 (11749266_a_at) / Fold change /veh PRRT2 (11749266_a_at) / RFU SNX32 (11753110_a_at) / Fold change /veh SNX32 (11753110_a_at) / RFU CDHR5 (11726645_a_at) / Fold change /veh CDHR5 (11726645_a_at) / RFU RCAN1 (11760418_a_at) / Fold change /veh RCAN1 (11760418_a_at) / RFU FAM167A (11723789_a_at) / Fold change /veh FAM167A (11723789_a_at) / RFU FAM26E (11764081_at) / Fold change /veh FAM26E (11764081_at) / RFU ISYNA1 (11749810_s_at) / Fold change /veh ISYNA1 (11749810_s_at) / RFU ACY1 (11761880_at) / Fold change /veh ACY1 (11761880_at) / RFU 11764098_at / Fold change /veh 11764098_at / RFU SAMD14 (11745864_x_at) / Fold change /veh SAMD14 (11745864_x_at) / RFU NPB (11741838_a_at) / Fold change /veh NPB (11741838_a_at) / RFU TMPRSS6 (11731388_a_at) / Fold change /veh TMPRSS6 (11731388_a_at) / RFU KRTAP10-2 (11738614_at) / Fold change /veh KRTAP10-2 (11738614_at) / RFU ARHGAP8 /// PRR5-ARHGAP8 (11727945_x_at) / Fold change /veh ARHGAP8 /// PRR5-ARHGAP8 (11727945_x_at) / RFU KRTAP5-7 /// NADSYN1 (11734609_at) / Fold change /veh KRTAP5-7 /// NADSYN1 (11734609_at) / RFU RASL12 (11751679_a_at) / Fold change /veh RASL12 (11751679_a_at) / RFU CDKN2B (11736163_a_at) / Fold change /veh CDKN2B (11736163_a_at) / RFU PRF1 (11729649_at) / Fold change /veh PRF1 (11729649_at) / RFU, ZNF638 /// ZNF638-IT1 / Fold change vs veh, ZNF638 /// ZNF638-IT1 / RFU, PANK3 / Fold change vs veh, PANK3 / RFU, SH3YL1 / Fold change vs veh, SH3YL1 / RFU, ZEB2 / Fold change vs veh, ZEB2 / RFU, NRIP1 / Fold change vs veh, NRIP1 / RFU, PTTG1IP / Fold change vs veh, PTTG1IP / RFU, CAPN2 / Fold change vs veh, CAPN2 / RFU, MED14 / Fold change vs veh, MED14 / RFU, SNORA58 / Fold change vs veh, SNORA58 / RFU, C1orf63 / Fold change vs veh, C1orf63 / RFU, LRRFIP1 / Fold change vs veh, LRRFIP1 / RFU, NDUFAF7 / Fold change vs veh, NDUFAF7 / RFU, SLC12A2 / Fold change vs veh, SLC12A2 / RFU, IBTK / Fold change vs veh, IBTK / RFU, ESF1 / Fold change vs veh, ESF1 / Fold change vs veh, TMEM50B / RFU, TAOK1 / Fold change vs veh, TAOK1 / RFU, ACBD3 / Fold change vs veh, ACBD3 / RFU, TMA16 / Fold change vs veh, TMA16 / RFU, RWDD3 / Fold change vs veh, RWDD3 / RFU, BCAT1 / Fold change vs veh, BCAT1 / RFU, EDEM3 / Fold change vs veh, EDEM3 / RFU, TMEM33 / Fold change vs veh, TMEM33 / RFU, WDR75 / Fold change vs veh, WDR75 / RFU, AHCTF1 / Fold change vs veh, AHCTF1 / RFU, TFRC / Fold change vs veh, TFRC / RFU, ZDHHC17 / Fold change vs veh, ZDHHC17 / RFU, NOM1 / Fold change vs veh, NOM1 / RFU, ARL8B / Fold change vs veh, ARL8B / RFU, ZBTB11 / Fold change vs veh, ZBTB11 / RFU, TAMM41 / Fold change vs veh, TAMM41 / RFU, KIAA1704 /// LOC100996395 / Fold change vs veh, KIAA1704 /// LOC100996395 / RFU, ING1 / Fold change vs veh, ING1 / RFU, TRMT61B / Fold change vs veh, TRMT61B / RFU, FUBP3 / Fold change vs veh, FUBP3 / RFU, TP53 / Fold change vs veh, TP53 / RFU, TNKS2 / Fold change vs veh, TNKS2 / RFU, ZFP14 / Fold change vs veh, ZFP14 / RFU, ACTR2 / Fold change vs veh, ACTR2 / RFU, PPP3R1 / Fold change vs veh, PPP3R1 / RFU, PIK3R1 / Fold change vs veh, PIK3R1 / RFU, HNRNPA1 / Fold change vs veh, HNRNPA1 / RFU, RNF170 / Fold change vs veh, RNF170 / RFU, ZNF28 / Fold change vs veh, ZNF28 / RFU, RNGTT / Fold change vs veh, RNGTT / RFU, OGT / Fold change vs veh, OGT / RFU, BRD1 / Fold change vs veh, BRD1 / RFU, MARS / Fold change vs veh, MARS / RFU, ZNF655 / Fold change vs veh, ZNF655 / RFU, FAHD1 / Fold change vs veh, FAHD1 / RFU, BDP1 / Fold change vs veh, BDP1 / RFU, LRRCC1 / Fold change vs veh, LRRCC1 / RFU, ARID1A / Fold change vs veh, ARID1A / RFU, ZNF146 / Fold change vs veh, ZNF146 / RFU, ZNF330 / Fold change vs veh, ZNF330 / RFU, GPN3 / Fold change vs veh, GPN3 / RFU, C9orf123 / Fold change vs veh, C9orf123 / RFU, N4BP2L2 / Fold change vs veh, N4BP2L2 / RFU, ARFIP1 / Fold change vs veh, ARFIP1 / RFU, FAM179B / Fold change vs veh, FAM179B / RFU, BCL10 / Fold change vs veh, BCL10 / RFU, UHRF1BP1L / Fold change vs veh, UHRF1BP1L / RFU, BET1 / Fold change vs veh, BET1 / RFU, CNOT2 / Fold change vs veh, CNOT2 / RFU, ZNF268 / Fold change vs veh, ZNF268 / Fold change vs veh, ZNF507 / RFU, DGCR2 / Fold change vs veh, DGCR2 / RFU, WDSUB1 / Fold change vs veh, WDSUB1 / Fold change vs veh, HSP90B1 /// MIR3652 / RFU, ADSS / Fold change vs veh, ADSS / RFU, GK / Fold change vs veh, GK / RFU, ZNF148 / Fold change vs veh, ZNF148 / RFU, TAF9 / Fold change vs veh, TAF9 / RFU, SLC1A5 / Fold change vs veh, SLC1A5 / RFU, SLMO2 / Fold change vs veh, SLMO2 / RFU, ABCC4 / Fold change vs veh, ABCC4 / RFU, LOC101060439 /// RAP1B / Fold change vs veh, LOC101060439 /// RAP1B / RFU, RFX7 / Fold change vs veh, RFX7 / RFU, GTPBP10 / Fold change vs veh, GTPBP10 / RFU, CNEP1R1 / Fold change vs veh, CNEP1R1 / RFU, BIVM-ERCC5 /// ERCC5 / Fold change vs veh, BIVM-ERCC5 /// ERCC5 / RFU, ILF3 / Fold change vs veh, ILF3 / RFU 11762660_at / Fold change /veh 11762660_at / RFU VCAN (11757783_s_at) / Fold change /veh VCAN (11757783_s_at) / RFU DDX43 (11728927_at) / Fold change /veh DDX43 (11728927_at) / RFU KRT8 (11758188_x_at) / Fold change /veh KRT8 (11758188_x_at) / RFU NKD1 (11759106_at) / Fold change /veh NKD1 (11759106_at) / RFU SRD5A1 (11742802_a_at) / Fold change /veh SRD5A1 (11742802_a_at) / RFU TPSAB1 /// TPSB2 (11721975_s_at) / Fold change /veh TPSAB1 /// TPSB2 (11721975_s_at) / RFU GSTM3 (11746129_a_at) / Fold change /veh GSTM3 (11746129_a_at) / RFU IL23R (11737362_x_at) / Fold change /veh IL23R (11737362_x_at) / RFU TMEM51 (11727254_a_at) / Fold change /veh TMEM51 (11727254_a_at) / RFU PIWIL2 (11732686_x_at) / Fold change /veh PIWIL2 (11732686_x_at) / RFU ORM1 (11744905_x_at) / Fold change /veh ORM1 (11744905_x_at) / RFU CCDC152 (11743942_at) / Fold change /veh CCDC152 (11743942_at) / RFU ECM1 (11717891_a_at) / Fold change /veh ECM1 (11717891_a_at) / RFU IL23R (11748794_a_at) / Fold change /veh IL23R (11748794_a_at) / RFU TNFAIP8L3 (11732012_x_at) / Fold change /veh TNFAIP8L3 (11732012_x_at) / RFU MBOAT4 (11741988_at) / Fold change /veh MBOAT4 (11741988_at) / RFU 11764193_at / Fold change /veh 11764193_at / RFU TMEM53 (11763286_at) / Fold change /veh TMEM53 (11763286_at) / RFU MAGEB2 (11727129_at) / Fold change /veh MAGEB2 (11727129_at) / RFU TMEM200A (11744735_a_at) / Fold change /veh TMEM200A (11744735_a_at) / RFU CCDC152 (11751479_a_at) / Fold change /veh CCDC152 (11751479_a_at) / RFU FAM211A (11726209_a_at) / Fold change /veh FAM211A (11726209_a_at) / RFU RGS16 (11746705_a_at) / Fold change /veh RGS16 (11746705_a_at) / RFU VCAN (11755009_s_at) / Fold change /veh VCAN (11755009_s_at) / RFU RHOB (11743442_s_at) / Fold change /veh RHOB (11743442_s_at) / RFU RGS16 (11720943_a_at) / Fold change /veh RGS16 (11720943_a_at) / RFU RGS16 (11720944_at) / Fold change /veh RGS16 (11720944_at) / RFU, VPS4B / Fold change vs veh, VPS4B / RFU, CREB1 / Fold change vs veh, CREB1 / RFU, DNAJC13 / Fold change vs veh, DNAJC13 / RFU, GNAQ / Fold change vs veh, GNAQ / RFU, CDK5R1 / Fold change vs veh, CDK5R1 / RFU, ZRANB3 / Fold change vs veh, ZRANB3 / RFU, CUL4A / Fold change vs veh, CUL4A / RFU, CCNY / Fold change vs veh, CCNY / RFU, UFL1 / Fold change vs veh, UFL1 / RFU, COG3 / Fold change vs veh, COG3 / RFU, DIAPH2 / Fold change vs veh, DIAPH2 / RFU, SKA2 / Fold change vs veh, SKA2 / RFU, AFF3 / Fold change vs veh, AFF3 / RFU, LMF1 / Fold change vs veh, LMF1 / RFU, IPO11 / Fold change vs veh, IPO11 / RFU, DFFB / Fold change vs veh, DFFB / RFU, FOXP1 / Fold change vs veh, FOXP1 / RFU, CARD8 / Fold change vs veh, CARD8 / RFU, STRN3 / Fold change vs veh, STRN3 / RFU, ADK / Fold change vs veh, ADK / RFU, RASSF2 / Fold change vs veh, RASSF2 / RFU, WIPF1 / Fold change vs veh, WIPF1 / RFU, LARP1B / Fold change vs veh, LARP1B / RFU, RASA1 / Fold change vs veh, RASA1 / RFU, RB1 / Fold change vs veh, RB1 / RFU, PPFIA1 / Fold change vs veh, PPFIA1 / RFU, MAT2A / Fold change vs veh, MAT2A / RFU, CCT5 / Fold change vs veh, CCT5 / RFU, WDR92 / Fold change vs veh, WDR92 / RFU, CUX1 / Fold change vs veh, CUX1 / RFU, TTC7A / Fold change vs veh, TTC7A / RFU, TMEM135 / Fold change vs veh, TMEM135 / RFU, DEPTOR / Fold change vs veh, DEPTOR / RFU, CPM / Fold change vs veh, CPM / RFU, DNAJB6 / Fold change vs veh, DNAJB6 / RFU, CACNA2D3 / Fold change vs veh, CACNA2D3 / RFU, DTX4 / Fold change vs veh, DTX4 / RFU, TFCP2 / Fold change vs veh, TFCP2 / RFU, GMCL1 /// GMCL1P1 / Fold change vs veh, GMCL1 /// GMCL1P1 / RFU, AEBP2 / Fold change vs veh, AEBP2 / RFU, SNHG1 /// SNORD22 /// SNORD25 /// SNORD26 /// SNORD27 /// SNORD28 /// SNORD29 /// SNORD31 / Fold change vs veh, SNHG1 /// SNORD22 /// SNORD25 /// SNORD26 /// SNORD27 /// SNORD28 /// SNORD29 /// SNORD31 / Fold change (Aza/veh), C12orf56 (ProbeSet 11735607_a_at) / Fold change (ACY-1035/veh), C12orf56 (ProbeSet 11735607_a_at) / Fold change (Aza/veh), FGFR1OP (ProbeSet 11751329_s_at) / Fold change (ACY-1035/veh), FGFR1OP (ProbeSet 11751329_s_at) / Fold change (Aza/veh), VPS36 (ProbeSet 11739960_a_at) / Fold change (ACY-1035/veh), VPS36 (ProbeSet 11739960_a_at) / RFU SYPL1 (11715823_x_at) / Fold change /veh SYPL1 (11715823_x_at) / RFU IGFBP7 (11715501_s_at) / Fold change /veh IGFBP7 (11715501_s_at) / RFU REEP3 (11722064_at) / Fold change /veh REEP3 (11722064_at) / RFU IGLL1 (11728026_x_at) / Fold change /veh IGLL1 (11728026_x_at): dose or concentration left out as unconfirmed
Conditions: ProbeSet 11760938_a_at; LIST D

## Nc1ccc(-c2cccs2)cc1NC(=O)c1ccc2c(c1)cc(C1CC1)n2CCN1CCOCC1 [ACY-1035]
  RFU, MAT2A: 163.17 RFU
